These results are taken from patent EP4043466B1, “PRC2 INHIBITORS” (Mirati Therapeutics, Inc., priority 2018, dated 2019).

Test [1] has as its target purified human, His-tagged PRC2 complex (Homo sapiens, UniProt O75530+Q15910). The test is described as follows: Hot Spot HMT assay: inhibition of PRC2 enzymatic activity (transfer of tritiated methyl from SAM to core histone, filter binding). Format: biochemical. To be noted: Inhibition of PRC2-mediated enzymatic activity; 10 nM PRC2 complex, 0.05 mg/ml core histone H3, 1 uM 3H-SAM, 1 hr at 30°C. An outline of the steps: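 Five-subunit complex (His-EZH2, Flag-EED, His-SUZ12, His-AEBP2, His-RbAp48) at 10 nM with 0.05 mg/ml core histone H3, pH 8 Tris buffer, 1% DMSO; 20 min compound pre-incubation at 30°C. Started with 1 uM [3H]-SAM, 1 hr at 30°C; tritiated H3 counted by scintillation. Compounds diluted from 1.0 µM top concentration.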

Test [2] deals with PRC2-mediated histone H3 methylation. The test can be described thus: Tri-Methyl Histone H3 (Lys 27) Sandwich ELISA in Pfeiffer cells: inhibition of PRC2-mediated histone H3 methylation. Format: cell-based, human. To be noted: Inhibition of EZH2-mediated histone H3 trimethylation, Pfeiffer cells (EZH2 A677G), 96 hours incubation. Put shortly:
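Pfeiffer DLBCL cells (EZH2 A677G mutant) treated with 3-fold serial dilutions, 1µM to 0.15 nM final, for 96 hours at 37°C. Acid (0.4M HCl) histone extracts, neutralized, assayed by H3K27me3 sandwich ELISA with HRP/TMB read at 450 nm.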
(In general: An ELISA detects its analyte on a solid surface through an enzyme-linked reagent.)

The subject of another test is Karpas 422 cells. The test is described as follows: Karpas 422 cell viability, CTG (Cell Titre Glo) assay. The test is classed as cell-based, human. Particulars: Inhibition of proliferation of Karpas 422 cells (EZH2 Y641N), viability measured Day 4, Day 7 or Day 11, time point of the tabulated values not stated. Put shortly:
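Karpas 422 cells (EZH2 Y641N, DLBCL) plated at 1000 cells/well in RPMI with 20% FBS, exposed to compound 10µM down to 1.5nM in 3-fold steps at 37 °C. Viability by CellTiter-Glo on Days 4, 7 and 11; Day 11 plates re-fed with fresh medium and compound on Day 7. IC50 per time point.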

Chain of purified human, His-tagged PRC2 complex (Q15910 whole entry): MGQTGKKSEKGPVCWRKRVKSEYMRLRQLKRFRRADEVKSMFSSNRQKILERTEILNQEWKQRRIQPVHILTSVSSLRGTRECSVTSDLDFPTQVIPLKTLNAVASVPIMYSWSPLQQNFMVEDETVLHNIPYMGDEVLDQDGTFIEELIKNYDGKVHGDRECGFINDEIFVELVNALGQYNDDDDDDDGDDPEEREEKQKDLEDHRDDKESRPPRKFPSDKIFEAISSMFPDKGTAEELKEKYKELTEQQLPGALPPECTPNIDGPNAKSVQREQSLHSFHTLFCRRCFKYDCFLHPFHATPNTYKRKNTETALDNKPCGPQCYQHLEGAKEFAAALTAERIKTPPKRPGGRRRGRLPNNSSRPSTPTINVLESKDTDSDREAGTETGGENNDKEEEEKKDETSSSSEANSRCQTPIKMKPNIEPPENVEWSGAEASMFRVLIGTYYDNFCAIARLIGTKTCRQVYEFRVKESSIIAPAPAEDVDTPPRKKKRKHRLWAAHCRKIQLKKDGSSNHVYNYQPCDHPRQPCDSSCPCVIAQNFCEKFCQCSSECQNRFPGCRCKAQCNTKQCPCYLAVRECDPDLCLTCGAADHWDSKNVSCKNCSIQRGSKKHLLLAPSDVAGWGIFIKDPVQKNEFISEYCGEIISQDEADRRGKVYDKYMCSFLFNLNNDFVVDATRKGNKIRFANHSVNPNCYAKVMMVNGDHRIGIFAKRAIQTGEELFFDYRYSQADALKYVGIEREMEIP
Chain of purified human, His-tagged PRC2 complex (O75530 whole entry): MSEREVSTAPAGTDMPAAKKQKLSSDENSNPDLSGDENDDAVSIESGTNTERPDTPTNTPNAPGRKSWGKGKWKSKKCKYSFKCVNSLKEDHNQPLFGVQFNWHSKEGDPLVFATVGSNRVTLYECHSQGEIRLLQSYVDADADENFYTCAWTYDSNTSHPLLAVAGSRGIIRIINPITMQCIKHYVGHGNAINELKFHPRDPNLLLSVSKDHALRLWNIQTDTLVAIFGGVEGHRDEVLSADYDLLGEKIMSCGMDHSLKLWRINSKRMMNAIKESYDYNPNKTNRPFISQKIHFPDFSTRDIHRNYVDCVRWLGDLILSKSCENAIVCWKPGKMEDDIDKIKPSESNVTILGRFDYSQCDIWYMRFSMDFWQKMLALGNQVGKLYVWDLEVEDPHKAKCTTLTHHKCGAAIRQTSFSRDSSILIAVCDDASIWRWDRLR
Chain of purified human, His-tagged PRC2 complex (Q15022 whole entry partner): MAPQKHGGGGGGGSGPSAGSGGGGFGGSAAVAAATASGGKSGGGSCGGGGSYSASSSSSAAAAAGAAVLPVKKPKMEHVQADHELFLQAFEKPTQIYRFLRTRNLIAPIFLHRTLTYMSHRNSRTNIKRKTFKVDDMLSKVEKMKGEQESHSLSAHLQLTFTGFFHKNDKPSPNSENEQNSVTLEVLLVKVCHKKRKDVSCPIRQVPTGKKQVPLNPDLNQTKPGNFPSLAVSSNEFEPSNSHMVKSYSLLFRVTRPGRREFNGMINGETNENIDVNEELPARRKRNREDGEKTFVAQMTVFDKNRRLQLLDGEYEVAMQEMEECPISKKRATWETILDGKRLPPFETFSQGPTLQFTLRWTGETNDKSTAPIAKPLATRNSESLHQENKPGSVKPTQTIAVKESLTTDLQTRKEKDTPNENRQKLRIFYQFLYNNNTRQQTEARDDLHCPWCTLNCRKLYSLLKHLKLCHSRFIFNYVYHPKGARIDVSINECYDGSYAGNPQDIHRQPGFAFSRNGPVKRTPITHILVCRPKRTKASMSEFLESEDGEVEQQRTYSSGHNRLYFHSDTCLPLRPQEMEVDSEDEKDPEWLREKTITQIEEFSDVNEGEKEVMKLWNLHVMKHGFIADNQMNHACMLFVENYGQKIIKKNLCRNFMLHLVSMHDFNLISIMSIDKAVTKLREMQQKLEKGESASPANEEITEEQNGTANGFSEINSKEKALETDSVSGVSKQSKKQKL
Chain of purified human, His-tagged PRC2 complex (Q6ZN18 whole entry partner): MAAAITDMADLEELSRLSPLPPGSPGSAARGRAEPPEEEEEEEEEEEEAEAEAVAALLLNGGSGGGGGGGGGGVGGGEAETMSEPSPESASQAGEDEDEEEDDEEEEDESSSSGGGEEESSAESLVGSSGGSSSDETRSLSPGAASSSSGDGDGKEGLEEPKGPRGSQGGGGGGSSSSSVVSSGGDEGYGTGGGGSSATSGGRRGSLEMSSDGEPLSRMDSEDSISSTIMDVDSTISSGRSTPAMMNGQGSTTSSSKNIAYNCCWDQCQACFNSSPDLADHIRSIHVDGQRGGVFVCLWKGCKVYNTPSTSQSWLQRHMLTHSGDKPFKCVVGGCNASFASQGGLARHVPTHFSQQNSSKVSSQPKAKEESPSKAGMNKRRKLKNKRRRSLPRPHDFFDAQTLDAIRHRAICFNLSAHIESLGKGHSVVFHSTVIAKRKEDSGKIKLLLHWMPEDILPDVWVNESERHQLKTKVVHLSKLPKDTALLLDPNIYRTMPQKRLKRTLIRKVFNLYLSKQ
Chain of purified human, His-tagged PRC2 complex (Q09028 whole entry partner): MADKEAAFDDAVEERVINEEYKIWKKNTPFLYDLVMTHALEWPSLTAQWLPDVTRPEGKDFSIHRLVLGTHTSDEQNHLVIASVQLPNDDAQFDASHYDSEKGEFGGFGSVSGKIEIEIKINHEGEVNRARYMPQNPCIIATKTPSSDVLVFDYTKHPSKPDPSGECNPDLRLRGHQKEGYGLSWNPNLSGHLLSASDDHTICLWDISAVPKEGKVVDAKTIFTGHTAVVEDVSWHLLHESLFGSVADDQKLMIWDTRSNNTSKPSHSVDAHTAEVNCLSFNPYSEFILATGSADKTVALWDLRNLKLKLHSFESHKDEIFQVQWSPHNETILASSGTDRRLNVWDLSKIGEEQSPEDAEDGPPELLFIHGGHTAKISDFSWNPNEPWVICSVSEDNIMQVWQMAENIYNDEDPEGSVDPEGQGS

Take `CN(C)C1(c2ccc(-c3cnc(NCc4c(F)ccc5c4CCO5)n4cc(C#N)nc34)cc2)CC1` [Example 171, 8-(4-(1-(dimethylamino)cyclopropyl)phenyl)-5-(((5-fluoro-2,3-dihydrobenzofuran-4-yl)methyl)amino)imidazo[1,2-c]pyrimidine-2-carbonitrile]: the IC50 in test [1] is less than 100 nM; in test [2] (Homo sapiens) it was 100 to 500 nM; with Karpas 422 cells (Homo sapiens), no more than 250 nM.
`Cc1cc(C2CCCN2)ccc1-c1cnc(NCc2c(F)ccc3c2CCO3)n2cc(C#N)nc12` (single isomer, unassigned) [Example 214, 5-(((5-fluoro-2,3-dihydrobenzofuran-4-yl)methyl)amino)-8-(2-methyl-4-(pyrrolidin-2-yl)phenyl)imidazo[1,2-c]pyrimidine-2-carbonitrile]: the IC50 is less than 100 nM in test [1], 100 to 500 nM in test [2] and no more than 250 nM in the test on Karpas 422 cells.
As to `Cc1cc(S(=O)(=O)C(F)(F)F)ccc1-c1cnc(NCc2c(F)ccc3c2CCO3)n2cc(C#N)nc12` [Example 184, 5-(((5-fluoro-2,3-dihydrobenzofuran-4-yl)methyl)amino)-8-(2-methyl-4-((trifluoromethyl)sulfonyl)phenyl)imidazo[1,2-c]pyrimidine-2-carbonitrile], the IC50 in test [1] fell in the range of 100 to 500 nM; in test [2] (Homo sapiens), 100 to 500 nM; in the test on Karpas 422 cells (Homo sapiens), 250 to 500 nM.
For the compound `Cc1cc(CN(C)C)ncc1-c1cnc(NCc2c(F)ccc3c2CCO3)n2cc(C#N)nc12` [Example 195, 8-(6-((dimethylamino)methyl)-4-methylpyridin-3-yl)-5-(((5-fluoro-2,3-dihydrobenzofuran-4-yl)methyl)amino)imidazo[1,2-c]pyrimidine-2-carbonitrile], the IC50 was less than 100 nM in test [1], no more than 100 nM in test [2] (Homo sapiens) and no more than 250 nM in the test on Karpas 422 cells (Homo sapiens).
The matching figures for `N#Cc1cn2c(NCc3c(F)ccc4c3CCO4)ncc(-c3ccccc3C#N)c2n1` [Example 187, 8-(2-cyanophenyl)-5-(((5-fluoro-2,3-dihydrobenzofuran-4-yl)methyl)amino)imidazo[1,2-c]pyrimidine-2-carbonitrile]: less than 100 nM, 100 to 500 nM and 250 to 500 nM.
In the same order, the values of `N#Cc1cn2c(NCc3c(F)ccc4c3CCO4)ncc(-c3ccc(C(=O)N4CCOCC4)cc3)c2n1` [Example 181, 5-(((5-fluoro-2,3-dihydrobenzofuran-4-yl)methyl)amino)-8-(4-(morpholine-4-carbonyl)phenyl)imidazo[1,2-c]pyrimidine-2-carbonitrile] are less than 100 nM, 100 to 500 nM and no more than 250 nM.
For the compound `Cc1cc(C(=O)N(C)C)ncc1-c1cnc(NCc2c(F)ccc3c2CCO3)n2cc(C#N)nc12` [Example 76, 5-(2-cyano-5-(((5-fluoro-2,3-dihydrobenzofuran-4-yl)methyl)amino)imidazo[1,2-c]pyrimidin-8-yl)-N,N,4-trimethylpicolinamide], the IC50 in test [1] was less than 100 nM; in test [2] (Homo sapiens), no more than 100 nM; with Karpas 422 cells (Homo sapiens) it was no more than 250 nM.
In the same order, the values of `N#Cc1cn2c(NCc3c(F)ccc4c3CCO4)ncc(-c3ccc(S(N)(=O)=O)cc3)c2n1` [Example 47, 4-(2-cyano-5-(((5-fluoro-2,3-dihydrobenzofuran-4-yl)methyl)amino)imidazo[1,2-c]pyrimidin-8-yl)benzenesulfonamide] are less than 100 nM, no more than 100 nM and no more than 250 nM.
Take `N#Cc1cn2c(NCc3c(F)ccc4c3CCO4)ncc(-c3ccc([C@@H]4CCCN4)cc3)c2n1` [Example 219, (S)-5-(((5-fluoro-2,3-dihydrobenzofuran-4-yl)methyl)amino)-8-(4-(pyrrolidin-2-yl)phenyl)imidazo[1,2-c]pyrimidine-2-carbonitrile]: the IC50 in test [1] is less than 100 nM; in test [2] (Homo sapiens), 100 to 500 nM; with Karpas 422 cells (Homo sapiens), no more than 250 nM.
The matching figures for `CN1CCc2cc(-c3cnc(NCc4c(F)ccc5c4CCO5)n4cc(C#N)nc34)ccc2C1` [Example 159, 5-(((5-fluoro-2,3-dihydrobenzofuran-4-yl)methyl)amino)-8-(2-methyl-1,2,3,4-tetrahydroisoquinolin-6-yl)imidazo[1,2-c]pyrimidine-2-carbonitrile]: 100 to 500 nM, no more than 100 nM and no more than 250 nM.
For `N#Cc1cn2c(NCc3c(F)ccc4c3CCO4)ncc(-c3cnccn3)c2n1` [Example 68, 5-(((5-fluoro-2,3-dihydrobenzofuran-4-yl)methyl)amino)-8-(pyrazin-2-yl)imidazo[1,2-c]pyrimidine-2-carbonitrile], the values for the IC50 (in test [1]; in test [2] (Homo sapiens); in the test on Karpas 422 cells (Homo sapiens)) were less than 100 nM, 100 to 500 nM and no more than 250 nM, respectively.
In the same order, the values of `Cc1cc(-c2cnc(NCc3c(F)ccc4sccc34)n3cc(C#N)nc23)n(C)n1` [Example 81, 8-(1,3-dimethyl-1H-pyrazol-5-yl)-5-(((5-fluorobenzo[b]thiophen-4-yl)methyl)amino)imidazo[1,2-c]pyrimidine-2-carbonitrile] are greater than 500 nM, greater than 500 nM and greater than 500 nM.
The matching figures for `CC(c1ccc(-c2cnc(NCc3c(F)ccc4c3CCO4)n3cc(C#N)nc23)cc1)N(C)C` (stereo not drawn) [Example 199, 8-(4-(1-(dimethylamino)ethyl)phenyl)-5-(((5-fluoro-2,3-dihydrobenzofuran-4-yl)methyl)amino)imidazo[1,2-c]pyrimidine-2-carbonitrile]: less than 100 nM, 100 to 500 nM and no more than 250 nM.
With `N#Cc1cn2c(NCc3c(F)ccc4c3CCO4)ncc(-c3cccc(C(=O)O)c3)c2n1` [Example 174, 3-(2-cyano-5-(((5-fluoro-2,3-dihydrobenzofuran-4-yl)methyl)amino)imidazo[1,2-c]pyrimidin-8-yl)benzoic acid], the IC50 in test [1] is less than 100 nM; in test [2] (Homo sapiens), greater than 500 nM; with Karpas 422 cells (Homo sapiens), greater than 500 nM.
Consider `N#Cc1cn2c(NCc3c(F)ccc4c3CCO4)ncc(-c3ccc(C4CC(=O)N4)cc3)c2n1` (stereo not drawn) [Example 222, 5-(((5-fluoro-2,3-dihydrobenzofuran-4-yl)methyl)amino)-8-(4-(4-oxoazetidin-2-yl)phenyl)imidazo[1,2-c]pyrimidine-2-carbonitrile], for which the IC50 in test [1] was less than 100 nM; in test [2] (Homo sapiens), no more than 100 nM; in the test with Karpas 422 cells (Homo sapiens) it was no more than 250 nM.
In the same order, the values of `Cc1ncccc1-c1cnc(NCc2c(F)ccc3occc23)n2cc(C(=O)O)nc12` [Example 3, 5-(((5-fluorobenzofuran-4-yl)methyl)amino)-8-(2-methylpyridin-3-yl)imidazo[1,2-c]pyrimidine-2-carboxylic acid] are 100 to 500 nM, greater than 500 nM and greater than 500 nM.
The matching figures for `N#Cc1cn2c(NCc3c(F)ccc4c3CCO4)ncc(-c3ccc(CN4CCOCC4)cc3)c2n1` [Example 75, 5-(((5-fluoro-2,3-dihydrobenzofuran-4-yl)methyl)amino)-8-(4-(morpholinomethyl)phenyl)imidazo[1,2-c]pyrimidine-2-carbonitrile]: less than 100 nM, 100 to 500 nM and no more than 250 nM.
Regarding `CN1CCOCC1c1ccc(-c2cnc(NCc3c(F)ccc4c3CCO4)n3cc(C#N)nc23)cc1` (stereo not drawn) [Example 227, 5-(((5-fluoro-2,3-dihydrobenzofuran-4-yl)methyl)amino)-8-(4-(4-methylmorpholin-3-yl)phenyl)imidazo[1,2-c]pyrimidine-2-carbonitrile], the IC50 is less than 100 nM in test [1], 100 to 500 nM in test [2] (Homo sapiens) and no more than 250 nM with Karpas 422 cells (Homo sapiens).
Regarding `CNCc1ccc(-c2cnc(NCc3c(F)ccc4c3CCO4)n3cc(C#N)nc23)c(C)c1` [Example 196, 5-(((5-fluoro-2,3-dihydrobenzofuran-4-yl)methyl)amino)-8-(2-methyl-4-((methylamino)methyl)phenyl)imidazo[1,2-c]pyrimidine-2-carbonitrile], the IC50 in test [1] was 100 to 500 nM; in test [2] (Homo sapiens), 100 to 500 nM; with Karpas 422 cells (Homo sapiens) it was no more than 250 nM.
On to `CN(C)CCOc1ccc(-c2cnc(NCc3c(F)ccc4c3CCO4)n3cc(C#N)nc23)cc1` [Example 189, 8-(4-(2-(dimethylamino)ethoxy)phenyl)-5-(((5-fluoro-2,3-dihydrobenzofuran-4-yl)methyl)amino)imidazo[1,2-c]pyrimidine-2-carbonitrile], for which the values for the IC50 (in test [1]; in test [2] (Homo sapiens); in the test on Karpas 422 cells (Homo sapiens)) were 100 to 500 nM, 100 to 500 nM and no more than 250 nM, respectively.
On to `N#Cc1cn2c(NCc3c(F)ccc4c3CCO4)ncc(-c3ccc(-c4nnn[nH]4)cc3)c2n1` [Example 190, 8-(4-(1H-tetrazol-5-yl)phenyl)-5-(((5-fluoro-2,3-dihydrobenzofuran-4-yl)methyl)amino)imidazo[1,2-c]pyrimidine-2-carbonitrile], for which the IC50 in test [1] is less than 100 nM; in test [2] (Homo sapiens), greater than 500 nM; with Karpas 422 cells (Homo sapiens), greater than 500 nM.

For orientation: IC50 means the midpoint of a concentration-inhibition curve. The low end stands for higher potency, the high end for lower potency.
